Columns and labels:
[1] = Acute toxicity, mouse; format: in vivo; conditions: in vivo, po, Table 6, p.o., read-out: Presumed LD50
Description: (§1) The acute toxicity of the compounds of the invention was examined by the following method.
(§2) Male ddy-strain 5-week old mice and male Wistar-strain 8 week old rats, five per group, were used as experimental animals. Each of the compounds was dissolved in saline and administered perorally, and the toxicity of the compound was assessed 24 hours after the administration.

[2] = system: mice; test: Acute toxicity, mouse; format: in vivo; conditions: 24 hours
Description: as §1, §2

[3] = system: mouse neuroblastoma cell line neuro-2a; test: Activity on neuro-2a, cells with outgrown neurites; format: cell-based
Procedure, shortened: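 Mouse neuro-2a cells in DMEM with FCS exposed to compounds for 24 h (up to 6 concentrations, triplicate runs), glutaraldehyde-fixed and methylene blue-stained. Proportion of cells bearing a neurite at least twice the cell's long diameter counted microscopically over ≥200 cells.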

[4] = system: human neuroblastoma cell line GOTO; test: Activity on neuroblastoma cell line GOTO (cell number, number and length of neurites); format: cell-based; conditions: for Number of cells: control 3.17
Description: (§3) The biological activities in vitro of the compounds of formula (I) on cells of the nervous system were tested. The cells tested were human neuroblastoma cell line GOTO [see Sekiguchi, M., Oota, T., Sakakibara, K., Inui, N. & Fujii, G., Japan. J. Exp. Med., 49, 67-83 (1979)], and neuroblastoma cell line NB-1 [see Miyake, S., Shimo, Y., Kitamura, T., Nojyo, Y., Nakamura, T., Imkashuku, S. and Abe, T., The Autonomic Nervous System, 10, 115-120 (1973)], and mouse neuroblastoma cell line neuro-2a (Dainippon Pharmaceutical Co., Ltd.) which have been established as the cells of the nervous system. The above neuve cells were grown in an incubator at 37° C. in the presence of 5% carbon dioxide gas exponentially, and then cultivated for a certain period of time together with the compounds of formula (I).
The effect of the compounds of this invention on neuroblastoma cells was examined by the following method.
(§4) A culture medium [composed of 45% of RPMI 1640 medium, 45% modified Eagle's medium (MEM) and 10% of fetal calf serum (FCS) and containing penicillin G sodium (100 units/ml) and streptomycin sulfate (100 microgram/ml)] containing neurobalstoma cell line GOTO in the logarithmic growth period was poured in an amount of 2 ml each into polystyrene dishes (35 mm; made by Corning Co.) so that the cell concentration was 2 to 6×10^4 cells per dish, and the cells were cultured for 1 to 2 days in a carbon dioxide gas incubator containing 5% of carbon dioxide gas in air at 37° C. Then, the culture fluid was removed, and 2 ml of a fresh serum-free culture fluid (consisting of 50% of RPMI medium and 50% of MEM medium and containing penicillin G sodium and streptomycin sulfate in the same amounts as above) was added. At the same time, a presterilized PBS solution (phosphate buffered saline) of each of the test compounds in various concentrations was added to each of the dishes. After culturing for 24 hours, the number of living cells was counted. Furthermore, the culture was photographed, and from the photos, the number and length of neurites per cell were measured. The numer of living cells was counted for 3 to 6 dishes by resistance to staining with erythrosine dye. The number and length of the neurites were measured with regard to 6 photos (more than 200 cells per photo).

[5] = Acute toxicity, rat; format: in vivo; conditions: in vivo, po, Table 7, p.o., read-out: Presumed LD50
Description: as §1, §2

[6] = system: rats; test: Acute toxicity, rat; format: in vivo; conditions: Table 7, 1700 mg/kg p.o., 24 hours
Description: as §1, §2

[7] = system: human neuroblastoma cell line GOTO; test: Activity on cell line GOTO (simple method); format: cell-based; conditions: 10 μg/ml, control 8.4
Description: as §3, §4
(§5) As a simple method of evaluation, the number of cells have neurites with a length equal to, or larger than, the long diameter of the cell was divided by the total number of cells.

[8] = system: mouse neuroblastoma cell line neuro-2a; test: Activity on cell line neuro-2a (simple method); format: cell-based
Description: as §3, with “(I). […]” for “(I).”
as §5

[9] = Table 1 Run No. 3, 1 μg/ml, control 1.94 ± 0.69, all *P <0.01
[10] = Table 1 Run No. 3, 1 μg/ml, control 45.13 ± 22.71, all *P <0.01
[11] = Table 1 Run No. 4, 1 μg/ml, control 1.98 ± 0.74
[12] = Table 1 Run No. 4, 1 μg/ml, control 5.48 ± 1.38
[13] = Table 1 Run No. 4, 1 μg/ml, control 54.15 ± 33.64

c1cnc(N2CCNCC2)nc1 [Compound 124]
LD50 at 24 h [1]: 550 to 1000 mg/kg
Number of dead animals/number of test animals ([2]; Table 6, 300 mg/kg p.o.): 0/5
Number of dead animals/number of test animals ([2]; Table 6, 500 mg/kg p.o.): 0/5
Number of dead animals/number of test animals ([2]; Table 6, 1000 mg/kg p.o.): 3/5
Cells having neurites with a length at least twice the long diameter of cell/total number of cells ([3]; Table 3 Run No. 1, 3.6 μM, control 2.2 ± 0.8): 4.6 ± 0.5%
Cells having neurites with a length at least twice the long diameter of cell/total number of cells ([3]; Table 3 Run No. 1, 36 μM, control 2.2 ± 0.8): 3.8 ± 1.2%
Number of cells ([4]; Table 1 Run No. 3, 0.0 μg/ml (so in the source)): 4.01 × 10^4 /dish
Number of neurites/cell (mean ± S.D.) [4, 9]: 2.23 ± 0.82 neurites/cell
Number of cells ([4]; Table 1 Run No. 3, 1 μg/ml): 4.10 × 10^4 /dish
Length of neurites (mean ± S.D.) [4, 10]: 66.56 ± 22.16 μm/cell
Number of neurites/cell (mean ± S.D.) [4, 11]: 2.13 ± 0.72 neurites/cell
Number of cells (mean ± S.E.) [4, 12]: 7.22 ± 1.98 × 10^4 /dish
Length of neurites (mean ± S.D.) [4, 13]: 72.19 ± 49.23 μm/cell
Number of neurites/cell (mean ± S.D.) ([4]; Table 1 Run No. 4, 10 μg/ml, control 1.98 ± 0.74): 2.08 ± 0.69 neurites/cell
Number of cells (mean ± S.E.) ([4]; Table 1 Run No. 4, 10 μg/ml, control 5.48 ± 1.38): 5.45 ± 2.61 × 10^4 /dish
Length of neurites (mean ± S.D.) ([4]; Table 1 Run No. 4, 10 μg/ml, control 54.15 ± 33.64): 71.31 ± 45.67 μm/cell
Number of neurites/cell (mean ± S.D.) ([4]; Table 1 Run No. 5, 1 μg/ml, control 1.96 ± 0.64): 1.96 ± 0.54 neurites/cell
Number of cells (mean ± S.E.) ([4]; Table 1 Run No. 5, 1 μg/ml, control 5.30 ± 0.23): 4.89 ± 0.59 × 10^4 /dish
Length of neurites (mean ± S.D.) ([4]; Table 1 Run No. 5, 1 μg/ml, control 46.41 ± 33.28): 52.59 ± 32.50 μm/cell

CN1Cc2nc(N3CCNCC3)ncc2C1=O [Compound 602]
Number of dead animals/number of test animals ([2]; Table 7, 1000 mg/kg p.o.): 0/5
Number of dead animals/number of test animals ([2]; Table 7, 1700 mg/kg p.o.): 0/5
Number of dead animals/number of test animals ([2]; Table 7, 3000 mg/kg p.o.): 3/5
Cells having neurites with a length at least twice the long diameter of cell/total number of cells ([3]; Table 3 Run No. 6, 0.1 mM, control 4.4 ± 0.9): 6.2 ± 0.2%
Cells having neurites with a length at least twice the long diameter of cell/total number of cells ([3]; Table 3 Run No. 6, 3 mM, control 4.4 ± 0.9): 10.0 ± 0.9%
LD50 at 24 h [5]: > 1700 mg/kg
Number of dead animals/number of test animals [6]: 0/5

CC(C)Nc1ncccn1.O=P(O)(O)O [Isaxonine, 2-isopropylaminopyrimidine ortho-phosphate, reference compound]
Cells having neurites with a length at least twice the long diameter of cell/total number of cells ([3]; Table 3 Run No. 3, 0.03 mM, control 3.9 ± 0.3): 4.7 ± 0.4%
Cells having neurites with a length at least twice the long diameter of cell/total number of cells ([3]; Table 3 Run No. 3, 0.1 mM, control 3.9 ± 0.3): 6.8 ± 1.2%
Cells having neurites with a length at least twice the long diameter of cell/total number of cells ([3]; Table 3 Run No. 3, 1 mM, control 3.9 ± 0.3): 7.0 ± 0.8%
Cells having neurites with a length at least twice the long diameter of cell/total number of cells ([3]; Table 3 Run No. 4, 1 mM, control 3.1 ± 0.2): 5.7 ± 1.2%
Cells having neurites with a length at least twice the long diameter of cell/total number of cells ([3]; Table 3 Run No. 4, 3 mM, control 3.1 ± 0.2): 13.6 ± 2.3%
Cells having neurites with a length at least twice the long diameter of cell/total number of cells ([3]; Table 3 Run No. 4, 10 mM, control 3.1 ± 0.2): 34.4 ± 0.6%
Cells having neurites with a length at least twice the long diameter of cell/total number of cells ([3]; Table 3 Run No. 6, 10 mM, control 4.4 ± 0.9): 29.9 ± 0.9%
Cells having neurites with a length at least twice the long diameter of cell/total number of cells ([3]; Table 3 Run No. 7, 10 mM, control 2.5 ± 0.7): 24.9 ± 1.0%
Cells having neurites with a length at least twice the long diameter of cell/total number of cells ([3]; Table 3 Run No. 8, 10 mM, control 3.7 ± 0.4): 28.2 ± 1.6%
Cells having neurites with a length at least twice the long diameter of cell/total number of cells ([3]; Table 3 second Run No. 5, 1 mM, control 4.5 ± 0.3): 6.8 ± 2.2%
Cells having neurites with a length at least twice the long diameter of cell/total number of cells ([3]; Table 3 second Run No. 5, 10 mM, control 4.5 ± 0.3): 27.0 ± 3.4%
Average of the proportions ([7]; Table 2 GOTO Run No. 1): 12.58%
Average of the proportions ([7]; Table 2 GOTO Run No. 2): 12.58%
Average of the proportions ([8]; Table 2 neuro-2a Run No. 1, 1 μg/ml, control 7.9): 12.15%
Average of the proportions ([8]; Table 2 neuro-2a Run No. 2, 1 μg/ml, control 7.9): 12.15%
Average of the proportions ([8]; Table 2 neuro-2a Run No. 3, 0.1 μg/ml, control 2.0): 9.1%
Average of the proportions ([8]; Table 2 neuro-2a Run No. 3, 1 μg/ml, control 2.0): 9.1%
Length of neurites (mean ± S.D.) ([4]; Table 1, Run No. 6 by footnote, 1 μg/ml, control 42.48 ± 19.64, all *P <0.01): 58.20 ± 25.40 μm/cell
Length of neurites (mean ± S.D.) ([4]; Table 1, Run No. 7 by footnote, 1 μg/ml, control 42.20 ± 17.75, all *P <0.01): 57.06 ± 28.78 μm/cell
Number of neurites/cell (mean ± S.D.) ([4]; Table 1, last control group (Run No. 7 by footnote), 1 μg/ml, control 1.77 ± 0.68): 1.91 ± 0.56 neurites/cell
Number of neurites/cell (mean ± S.D.) ([4]; Table 1, second control group (Run No. 6 by footnote), 1 μg/ml, control 1.79 ± 0.80): 2.00 ± 0.86 neurites/cell
Number of neurites/cell (mean ± S.D.) ([4]; Table 1 Run No. 1, 1 μg/ml, control 2.09 ± 0.61): 2.18 ± 0.77 neurites/cell
Number of cells (mean ± S.E.) ([4]; Table 1 Run No. 1, 1 μg/ml, control 14.34 ± 0.72): 17.63 ± 2.80 × 10^4 /dish
Length of neurites (mean ± S.D.) ([4]; Table 1 Run No. 1, 1 μg/ml, control 70.10 ± 43.03): 87.86 ± 56.03 μm/cell
Number of neurites/cell (mean ± S.D.) ([4]; Table 1 Run No. 1, 10 μg/ml, control 2.09 ± 0.61): 1.99 ± 0.51 neurites/cell
Number of cells (mean ± S.E.) ([4]; Table 1 Run No. 1, 10 μg/ml, control 14.34 ± 0.72): 19.18 ± 0.67 × 10^4 /dish
Length of neurites (mean ± S.D.) ([4]; Table 1 Run No. 1, 10 μg/ml, control 70.10 ± 43.03): 82.87 ± 50.70 μm/cell
Number of neurites/cell (mean ± S.D.) ([4]; Table 1 Run No. 2, 1 μg/ml, control 2.06 ± 0.60): 2.09 ± 0.66 neurites/cell
Number of cells (mean ± S.E.) ([4]; Table 1 Run No. 2, 1 μg/ml, control 12.30 ± 1.48): 14.89 ± 1.35 × 10^4 /dish
Length of neurites (mean ± S.D.) ([4]; Table 1 Run No. 2, 1 μg/ml, control 55.00 ± 37.26): 66.01 ± 40.21 μm/cell
Number of neurites/cell (mean ± S.D.) [4, 9]: 2.31 ± 0.86 neurites/cell
Number of cells ([4]; Table 1 Run No. 3, 1 μg/ml): 4.72 × 10^4 /dish
Length of neurites (mean ± S.D.) [4, 10]: 68.29 ± 24.83 μm/cell
Number of neurites/cell (mean ± S.D.) [4, 11]: 1.99 ± 0.70 neurites/cell
Number of cells (mean ± S.E.) [4, 12]: 9.44 ± 1.95 × 10^4 /dish
Length of neurites (mean ± S.D.) [4, 13]: 71.25 ± 40.39 μm/cell

From US4959368A, “Therapeutic agent for neurological diseases” (Mitsui Petrochemical Industries Ltd., priority 1986, dated 1990)
